Values joined by “and” are separate entries in the source; they are usually repeats but may differ in a detail not shown here. Identical values can stand only once.
Key:
[1] = system: ischaemic skeletal muscle; assay: Contractility of ischaemic skeletal (calf) muscle, direct stimulation, femoral artery graded occlusion; assay type: in vivo; conditions: cat; for dose range of activity: contractility and pO2 of ischaemic skeletal muscle; for changes in contractility and pO2 in comparison with Compound A (in words): 5-32 mg/kg vs Compound A at 125 μg/kg
Method: Cats of either sex were anaesthetized with urethane/chloralose (120/60 mg/kg i.p.). […] The intraduodenal (i.d.) application of compound was conducted by means of a plastic catheter, which was inserted into the duodenum.
Cats of either sex were anaesthetized as for pO2 measurement. After dissection of the skin of the calf muscles, the sciatic nerve was cut about 3 cm proximal to the knee. The tendon of the calf muscles was cut and connected with an isometric force transducer (SWEMA, SG 3). In order to maintain constant differences and a resting tension of 100 p, the hind limb was fixed at the tibia by means of a clamp. Direct stimulation of the muscles consisted of square wave pulses of 4 msec duration at a frequency of 2 Hz and at a voltage of 50 V. In order to keep the muscles wet and at a normal temperature, the muscles were continuously superfused by means of a NaCl-solution (0.9%, 38° C.). Femoral blood flow was restricted by a graded occlusion of the artery leading to a reduction of contractility by ca. 30%. After having reached a constant level of the contraction force, the vehicle (NaCl and Methocel, respectively) was injected, followed by the test substance.

skeletal muscle = assay: Oxygen tension (pO2) in skeletal muscle (m. gastrocnemius), femoral artery ligation, Pt-needle electrodes; assay type: in vivo, cat; conditions: for effect of Compound A, Δ pO2: 125 μg/kg i.v.
Method: Cats of either sex were anaesthetized with urethane/chloralose (120/60 mg/kg i.p.). In the course of the experiments, pentobarbital was injected intravenously (V. antebrachii ceph.) via a plastic tube. The intraduodenal (i.d.) application of compound was conducted by means of a plastic catheter, which was inserted into the duodenum.
pO2 was measured polarographically using Pt-needle electrodes (modified according to Baumgartl and Lubbers, 1973). The reference electrode, an Ag/AgCl system was sputtered on the glass mantle of the cathode, or it was a separate electrode. The cathode was coated with a polystyrol and a collodium membrane. A constant voltage supply provided a polarizing voltage between 600 and 800 mV. The reducing current was measured by a nano-ampere amplifying meter. The cathode was inserted in the tissue by means of a motor-driven micromanipulator.
A pO2 -electrode was inserted in the muscle tissue (m. gastrocnemius) of both hindlegs of an anaesthetized cat. After recording the pO2 of the normal perfused muscle, the blood flow to one measuring site was restricted by ligating the femoral artery. The pO2 dropped steeply and the tissue became ischaemic. After a few minutes, the pO2 increased and then decreased again. The values were constant after 30 to 60 min. After having reached a constant level of pO2, the vehicle was given, followed by the test substance.
The mean value and the standard deviation were calculated, in order to check the significance of the effect.

[2] = Blood pressure (BP), initial decrease phase and second increase phase; assay type: in vivo, cat; conditions: Table 3, 125 μg/kg i.v.
LD50 in mice per oral = conditions: mouse, in vivo
[3] = Solubility in water / aqueous media; assay type: physicochemical
[4] = in vivo; cited from earlier work

water solubility (in words) ([3]; water, reason for NT i.v.) | SMILES | contractility of ischaemic skeletal muscle (in words) [1] | dose range of activity [1] | effect of Compound A, Δ pO2 (skeletal muscle; Table 2, control hind limb, individual cats) | effect of Compound A, Δ pO2 (skeletal muscle; Table 2, hind limb with art. ligation, individual cats) | pO2 of ischaemic skeletal muscle (in words) (skeletal muscle; cat) | t, time interval to reach initial values, second phase BP increase [2] | LD50 (LD50 in mice per oral) | solubility in aqueous media (in words) ([3]; aqueous media) | changes in contractility and pO2 in comparison with Compound A (in words) [1] | Mean effect of Compound B compared to Compound A (skeletal muscle; Table 2, B at 5 mg/kg vs A at 125 μg/kg, mean) | effect of Compound B, Δ pO2 (skeletal muscle; Table 2, control hind limb, 5 mg/kg i.v., individual cats, 5 mg/kg) | oral toxicity (in words) [4] | contractility (% initial value) ([1]; Table 1, ischaemic muscle, i.d., 12.5 mg/kg) | pO2 (increase) (skeletal muscle; Table 1, ischaemic muscle, cat, i.d., 32 mg/kg)
 | CCCCn1c(=O)c2c(ncn2CC(C)=O)n(CCCC)c1=O [Compound A, 1,3-di-n-butyl-7-(2-oxopropyl)xanthine] | distinct increase | 0.05 to 0.125 mg/kg | 3.8 Torr and 3.5 Torr and 3.4 Torr | 6.2 Torr and 7.3 Torr and 5.2 Torr and 5.6 Torr | distinct increase | 32 min | > 1000 mg/kg | only sparingly soluble in aqueous media |  |  |  |  |  | 
 | CC(=O)CCCCn1c(=O)c2c(ncn2C)n(C)c1=O [Compound B, pentoxyphylline] |  | 5 to 32 mg/kg |  |  |  |  |  |  | less pronounced in comparison with Compound A | 21.3% | 0.3 Torr | low oral toxicity |  | 
low water solubility | CCCCn1c(=O)c2c(ncn2CC(=O)CC)n(CCCC)c1=O [Compound C, 1,3-di-n-butyl-7-(2-oxobutyl)xanthine] |  | 5 to 32 mg/kg |  |  |  |  |  |  | less pronounced in comparison with Compound A |  |  |  | 22 % initial value | 6 mmHg
